Measurements reported in patent US20200022370A1, “MICROBIOCIDAL OXADIAZOLE DERIVATIVES” (SYNGENTA PARTICIPATIONS AG, priority 2016, published 2020).
Where two headings read alike, the source gives them in different places.

How the values were obtained:
[1] = tested on: Glomerella lacenarium (Colletotrichum lacenarium); test: Glomerella lacenarium (Colletotrichum lacenarium) liquid culture / cucumber / preventative (anthracnose); format: cell-based; settings: read-out: disease control
Procedure: Mycelia fragments or conidia suspensions of a fungus prepared either freshly from liquid cultures of the fungus or from cryogenic storage, are directly mixed into nutrient broth. DMSO solutions of the test compound (max. 10 mg/ml) are diluted with 0.025% Tween20 by a factor of 50 and 10 μl of this solution is pipetted into a microtiter plate (96-well format). The nutrient broth containing the fungal spores/mycelia fragments is then added to give an end concentration of the tested compound. The test plates are incubated in the dark at 24° C. and 96% relative humidity. The inhibition of fungal growth is determined photometrically after 2 to 7 days, depending on the pathosystem, and percent antifungal activity relative to the untreated check is calculated.
Example 4: Fungicidal Activity Against Glomerella lacenarium (Colletotrichum lacenarium) Liquid Culture/Cucumber/Preventative (Anthracnose)
Conidia of the fungus from cryogenic storage are directly mixed into nutrient broth (PDB-potato dextrose broth). After placing a (DMSO) solution of test compound into a microtiter plate (96-well format), the nutrient broth containing the fungal spores is added. The test plates are incubated at 24° C. and the inhibition of growth is measured photometrically 3 to 4 days after application.
The following compounds at 20 ppm in the applied Formulation give at least 80% disease control in this test when compared to untreated control under the same conditions, which show extensive disease development.

[2] = tested on: Puccinia recondita f. Sp. Tritici; test: Puccinia recondita f. sp. tritici / wheat / leaf disc preventative (brown rust); format: in vivo; settings: foliar, read-out: disease control
Procedure: Leaf disks or leaf segments of various plant species are cut from plants grown in a greenhouse. The cut leaf disks or segments are placed in multiwell plates (24-well format) onto water agar. The leaf disks are sprayed with a test solution before (preventative) or after (curative) inoculation. Compounds to be tested are prepared as DMSO solutions (max. 10 mg/ml) which are diluted to the appropriate concentration with 0.025% Tween20 just before spraying. The inoculated leaf disks or segments are incubated under defined conditions (temperature, relative humidity, light, etc.) according to the respective test system. A single evaluation of disease level is carried out 3 to 14 days after inoculation, depending on the pathosystem. Percent disease control relative to the untreated check leaf disks or segments is then calculated.
Example 1: Fungicidal Activity Against Puccinia recondita f. Sp. Tritici/Wheat/Leaf Disc Preventative (Brown Rust)
Wheat leaf segments cv. Kanzler were placed on agar in multiwell plates (24-well format) and sprayed with the Formulated test compound diluted in water. The leaf disks were inoculated with a spore suspension of the fungus 1 day after application. The inoculated leaf segments were incubated at 19° C. and 75% relative humidity (rh) under a light regime of 12 hours light/12 hours darkness in a climate cabinet and the activity of a compound was assessed as percent disease control compared to untreated when an appropriate level of disease damage appears in untreated check leaf segments (7 to 9 days after application).
The following compounds at 200 ppm in the applied Formulation give at least 80% disease control in this test when compared to untreated control leaf disks under the same conditions, which show extensive disease development.

[3] = 20 ppm, liquid culture in PDB, 24° C., inhibition of growth measured photometrically 3 to 4 days after application, vs untreated
[4] = 200 ppm in the applied formulation, wheat leaf segments cv. Kanzler, inoculated 1 day after application, vs untreated, 7 to 9 days after application

Row | Structure (SMILES) | inhibition of growth at 20 ppm [1, 3] | pest or weed control at 200 ppm [2, 4] | further results
1 | C=CCON(C)C(=O)Nc1ccc(-c2noc(C(F)(F)F)n2)cc1 [Compound 2.21, 1-allyloxy-1-methyl-3-[4-[5-(trifluoromethyl)-1,2,4-oxadiazol-3-yl]phenyl]urea] | ≥ 80% |  | 
2 | O=C(Cc1cc(F)cc(F)c1)Nc1ccc(-c2noc(C(F)(F)F)n2)cc1 [Compound 1.117, 2-(3,5-difluorophenyl)-N-[4-[5-(trifluoromethyl)-1,2,4-oxadiazol-3-yl]phenyl]acetamide] | ≥ 80% |  | 
3 | O=C1CC(C(=O)Nc2ccc(-c3noc(C(F)(F)F)n3)cc2)C1 [Compound 1.106, 3-oxo-N-[4-[5-(trifluoromethyl)-1,2,4-oxadiazol-3-yl]phenyl]cyclo-butanecarboxamide] | ≥ 80% | ≥ 80% | 
4 | O=C(Cc1cccnc1)Nc1ccc(-c2noc(C(F)(F)F)n2)cc1 [Compound 1.84, 2-(3-pyridyl)-N-[4-[5-(trifluoromethyl)-1,2,4-oxadiazol-3-yl]phenyl]acetamide] | ≥ 80% | ≥ 80% | 
5 | CC(=O)Nc1ccc(CC(=O)Nc2ccc(-c3noc(C(F)(F)F)n3)cc2)cc1 [Compound 1.26, 2-(4-acetamidophenyl)-N-[4-[5-(trifluoromethyl)-1,2,4-oxadiazol-3-yl]phenyl]acetamide] |  | ≥ 80% | 
6 | C=CCCCCC(=O)Nc1ccc(-c2noc(C(F)(F)F)n2)cc1 [Compound 1.93, N-[4-[5-(trifluoromethyl)-1,2,4-oxadiazol-3-yl]phenyl]hept-6-enamide] | ≥ 80% |  | 
7 | O=C(Cc1ccccc1F)Nc1ccc(-c2noc(C(F)(F)F)n2)cc1 [Compound 1.100, 2-(2-fluorophenyl)-N-[4-[5-(trifluoromethyl)-1,2,4-oxadiazol-3-yl]phenyl]acetamide] | ≥ 80% | ≥ 80% | 
8 | C=CCC(=O)Nc1ccc(-c2noc(C(F)(F)F)n2)cc1 [Compound 1.94, N-[4-[5-(trifluoromethyl)-1,2,4-oxadiazol-3-yl]phenyl]but-3-enamide] | ≥ 80% | ≥ 80% | 
9 | O=C(CSc1ccccc1)Nc1ccc(-c2noc(C(F)(F)F)n2)cc1 [Compound 1.44, 2-phenylsulfanyl-N-[4-[5-(trifluoromethyl)-1,2,4-oxadiazol-3-yl]phenyl]acetamide] | ≥ 80% | ≥ 80% | 
10 | CC(=O)OCC(=O)Nc1ccc(-c2noc(C(F)(F)F)n2)cc1 [Compound 1.95, [2-oxo-2-[4-[5-(trifluoromethyl)-1,2,4-oxadiazol-3-yl]anilino]ethyl] acetate] | ≥ 80% | ≥ 80% | 
11 | O=C(CF)Nc1ccc(-c2noc(C(F)(F)F)n2)cc1 [Compound 1.19, 2-fluoro-N-[4-[5-(trifluoromethyl)-1,2,4-oxadiazol-3-yl]phenyl]acetamide] |  |  | pest or weed control at 200 ppm [2]: ≥ 80%; inhibition of growth at 20 ppm [1]: ≥ 80%
12 | CC1(C)CC1C(=O)Nc1ccc(-c2noc(C(F)(F)F)n2)cc1 (centres unmarked) [Compound 2.12, 2,2-dimethyl-N-[4-[5-(trifluoromethyl)-1,2,4-oxadiazol-3-yl]phenyl] cyclopropane-carboxamide] | ≥ 80% |  | 
13 | N#Cc1cc(F)c(C(=O)Nc2ccc(-c3noc(C(F)(F)F)n3)nc2)c(F)c1 [Compound 1.49, 4-cyano-2,6-difluoro-N-[6-[5-(trifluoromethyl)-1,2,4-oxadiazol-3-yl]-3-pyridyl]benzamide] |  | ≥ 80% | 
14 | O=C(CCCC=C(F)F)Nc1ccc(-c2noc(C(F)(F)F)n2)cc1 [Compound 1.98, 6,6-difluoro-N-[4-[5-(trifluoromethyl)-1,2,4-oxadiazol-3-yl]phenyl]hex-5-enamide] | ≥ 80% | ≥ 80% | 
15 | O=C(Cc1ccc2c(c1)OCO2)Nc1ccc(-c2noc(C(F)(F)F)n2)nc1 [Compound 1.48, 2-(1,3-benzodioxol-5-yl)-N-[6-[5-(trifluoromethyl)-1,2,4-oxadiazol-3-yl]-3-pyridyl]acetamide] | ≥ 80% |  | 
16 | O=C(Cc1ccc(C(F)(F)F)nc1)Nc1ccc(-c2noc(C(F)(F)F)n2)cc1 [Compound 1.108, N-[4-[5-(trifluoromethyl)-1,2,4-oxadiazol-3-yl]phenyl]-2-[6-(trifluoromethyl)-3-pyridyl]acetamide] | ≥ 80% |  | 
17 | O=C(Cc1ccc(OC(F)(F)F)cc1)Nc1ccc(-c2noc(C(F)(F)F)n2)cc1 [Compound 1.119, 2-[4-(trifluoromethoxy)phenyl]-N-[4-[5-(trifluoromethyl)-1,2,4-oxadiazol-3-yl]phenyl]acetamide] | ≥ 80% |  | 
18 | CN(C(=O)c1ccccc1Cl)c1ccc(-c2noc(C(F)(F)F)n2)cc1 [Compound 1.134, 2-chloro-N-methyl-N-[4-[5-(trifluoromethyl)-1,2,4-oxadiazol-3-yl]phenyl]benzamide] | ≥ 80% |  | 
19 | CC(C)(C)OC(=O)NC(C(=O)Nc1ccc(-c2noc(C(F)(F)F)n2)cc1)c1ccccc1 (centres unmarked) [Compound 1.18, tert-butyl N-[2-oxo-1-phenyl-2-[4-[5-(trifluoromethyl)-1,2,4-oxadiazol-3-yl]anilino]ethyl] carbamate] |  | ≥ 80% | 
20 | CON(C)C(=O)Nc1ccc(-c2noc(C(F)(F)F)n2)nc1 [Compound 1.65, 1-methoxy-1-methyl-3-[6-[5-(trifluoromethyl)-1,2,4-oxadiazol-3-yl]-3-pyridyl]urea] | ≥ 80% |  | 
21 | CCOCC(=O)Nc1ccc(-c2noc(C(F)(F)F)n2)cc1 [Compound 2.10, 2-ethoxy-N-[4-[5-(trifluoromethyl)-1,2,4-oxadiazol-3-yl]phenyl] acetamide] | ≥ 80% |  | 
22 | CC=CC=CC(=O)NC1(C(=O)Nc2ccc(-c3noc(C(F)(F)F)n3)cc2)CCCC(C)C1 (centres unmarked) [Compound 1.21, 1-(hexa-2,4-dienoylamino)-3-methyl-N-[4-[5-(trifluoromethyl)-1,2,4-oxadiazol-3-yl]phenyl]cyclo-hexanecarboxamide] |  | ≥ 80% | 
23 | CC(C)CCC(=O)Nc1ccc(-c2noc(C(F)(F)F)n2)cc1 [Compound 1.110, 4-methyl-N-[4-[5-(trifluoromethyl)-1,2,4-oxadiazol-3-yl]phenyl] pentanamide] | ≥ 80% |  | 
24 | CC(Oc1ccccc1)C(=O)Nc1ccc(-c2noc(C(F)(F)F)n2)cc1 (centres unmarked) [Compound 1.79, 2-phenoxy-N-[4-[5-(trifluoromethyl)-1,2,4-oxadiazol-3-yl]phenyl] propanamide] | ≥ 80% |  | 
25 | CN(C(=O)CC1CC1)c1ccc(-c2noc(C(F)(F)F)n2)cc1 [Compound 2.26, 2-cyclopropyl-N-methyl-N-[4-[5-(trifluoromethyl)-1,2,4-oxadiazol-3-yl]phenyl]acetamide] | ≥ 80% |  | 
26 | O=C(Cc1cccc(C(F)(F)F)n1)Nc1ccc(-c2noc(C(F)(F)F)n2)cc1 [Compound 1.114, N-[4-[5-(trifluoromethyl)-1,2,4-oxadiazol-3-yl]phenyl]-2-[6-(trifluoromethyl)-2-pyridyl]acetamide] | ≥ 80% |  | 
27 | O=C(NCC(F)(F)F)Nc1ccc(-c2noc(C(F)(F)F)n2)cc1 [Compound 2.22, 1-(2,2,2-trifluoroethyl)-3-[4-[5-(trifluoromethyl)-1,2,4-oxadiazol-3-yl]phenyl]urea] | ≥ 80% |  | 
